Marks after values point to notes of the source that are not given here.
Tested on: IPF patients
Experiment: Phase II clinical trial in IPF patients: Treatment Emergent Adverse Events (safety/tolerability), up to 13 weeks
Conditions: 18 mg b.i.d.
[1] = AF-group (antifibrotic background)
[2] = AF-group (antifibrotic background), listed as Compound of Formula III
[3] = AF-group (antifibrotic background), listed as active agent
[4] = AF-group, nintedanib background medication sub-group
[5] = AF-group, nintedanib background
[6] = AF-group, nintedanib background, listed as Compound of Formula III
[7] = AF-group, nintedanib background, listed as active agent
[8] = AF-group, nintedanib background, listed as compound of formula III
[9] = AF-group, nintedanib background, males
[10] = AF-group, pirfenidone background medication sub-group
[11] = AF-group, pirfenidone background

[O-][S@+]1CCc2nc(N3CCC(c4ncc(Cl)cn4)CC3)nc(NC3(CO)CCC3)c21 [Comp. of form. III]
SAE: Condition aggravated, patients n [1]: 2 | SAE: General disorders and administration side conditions, bracketed fatal event [ ]*, patients % [1]: (2.1)]* % | SAE: General disorders and administration side conditions, bracketed fatal event [ ]*, patients n [1]: [1 | SAE: General disorders and administration side conditions, patients % [1]: (4.1) % | SAE: General disorders and administration side conditions, patients n [1]: 2 | SAE: Nervous system disorders, patients % [1]: (2.0) % | SAE: Nervous system disorders, patients n [1]: 1 | SAE: Peripheral nerve paresis, patients % [1]: (2.0) % | SAE: Peripheral nerve paresis, patients n [1]: 1 | SAE: Vascular disorders, patients % [1]: (2.0) % | SAE: Vascular disorders, patients n [1]: 1 | SAE: Vasculitis (fatal event), patients % [1]: (2.0)* % | SAE: Vasculitis (fatal event), patients n [1]: 1 | Serious AEs (patients with ≥1 SAE), patients % [1]: (6.1) % | Serious AEs (patients with ≥1 SAE), patients n [1]: 3 | Severe AEs, patients % [1]: (4.1) % | Severe AEs, patients n [1]: 2 | AE: Diarrhoea, patients % (AF-group (antifibrotic background), listed as Comp. of Form. III): 30.6% | AE: Diarrhoea, patients % [2]: (30.6) % | AE: Gastrointestinal disorders, patients % [2]: (36.7) % | Any AE, patients % [2]: (73.5) % | AE: Diarrhoea, patients % [3]: 30.6% | Any AE, patients % [3]: 73.5% | AE: Diarrhoea, patients % [4]: 46.2% | AE: gastrointestinal disorder, patients % [4]: 46.2% | Dyspepsia leading to discontinuation of trial treatment, patients % [5]: (3.8) % | Dyspepsia leading to discontinuation of trial treatment, patients n [5]: 1 | Gastrointestinal disorders leading to discontinuation of trial treatment, patients n [5]: 4 | Patients with AEs leading to discontinuation of the trial drug, % [5]: 26.9% | Patients with any AE, % [5]: 80.8% | Patients with investigator defined drug related AEs, % [5]: 46.2% | Patients with other significant AEs, % [5]: 26.9% | Patients with pre-specified AEs of special interest, % [5]: 0% | Patients with serious AEs, % [5]: 3.8% | Patients with severe AEs, % [5]: 3.8% | Serious AEs: Congenital anomaly/birth defect, % [5]: 0% | Serious AEs: Immediately life threatening, % [5]: 0% | Serious AEs: Other comparable medical criteria, % [5]: 0% | Serious AEs: Persistent or significant disability, % [5]: 0% | Serious AEs: Requires or prolongs hospitalization, % [5]: 3.8% | Serious AEs: Results in Death, % [5]: 0% | Diarrhoea leading to discontinuation of trial treatment, patients % [6]: (11.5) % | Diarrhoea leading to discontinuation of trial treatment, patients n [6]: 3 | Gastrointestinal disorders leading to discontinuation of trial treatment, patients % [6]: (15.4) % | Diarrhoea leading to discontinuation of trial treatment, patients n [7]: 3 | Gastrointestinal disorders leading to discontinuation of trial treatment, patients % [7]: 15.4% | Diarrhoea leading to discontinuation of trial treatment, patients % [8]: 11.5% | Gastrointestinal disorders leading to discontinuation of trial treatment, patients % [8]: 15.4% | Moderate cases of diarrhoea, % [9]: 2.1% | Severe case of diarrhoea, % [9]: 1.0% | AE: Diarrhoea, patients % [10]: 13.0% | AE: gastrointestinal disorder, patients % [10]: 26.1% | Patients with AEs leading to discontinuation of the trial drug, % [11]: 13.0% | Patients with any AE, % [11]: 65.2% | Patients with investigator defined drug related AEs, % [11]: 26.1% | Patients with other significant AEs, % [11]: 4.3% | Patients with pre-specified AEs of special interest, % [11]: 4.3% | Patients with serious AEs, % [11]: 8.7% | Patients with severe AEs, % [11]: 4.3% | Serious AEs: Congenital anomaly/birth defect, % [11]: 0% | Serious AEs: Immediately life threatening, % [11]: 0% | Serious AEs: Other comparable medical criteria, % [11]: 0% | Serious AEs: Persistent or significant disability, % [11]: 0% | Serious AEs: Requires or prolongs hospitalization, % [11]: 8.7% | Serious AEs: Results in Death, % [11]: 4.3% | Gastrointestinal disorders leading to discontinuation of trial treatment, patients (in words) (AF-group, pirfenidone background, listed as active agent): not a single patient | Gastrointestinal disorders leading to discontinuation of trial treatment, patients (in words) (AF-group, pirfenidone background, listed as compound of formula III): no discontinuations of the trial treatment at all | AE resulting in death, patients % (Non-AF+AF total): (2.1) % | AE resulting in death, patients n (Non-AF+AF total): 2 | AE: Abdominal pain, patients % (Non-AF+AF total): (2.1) % | AE: Abdominal pain, patients n (Non-AF+AF total): 2 | AE: Arthralgia, patients % (Non-AF+AF total): (2.1) % | AE: Arthralgia, patients n (Non-AF+AF total): 2 | AE: Asthenia, patients % (Non-AF+AF total): (4.1) % | AE: Asthenia, patients n (Non-AF+AF total): 4 | AE: Bronchitis, patients % (Non-AF+AF total): (2.1) % | AE: Bronchitis, patients n (Non-AF+AF total): 2 | AE: Condition aggravated, patients % (Non-AF+AF total): (2.1) % | AE: Condition aggravated, patients n (Non-AF+AF total): 2 | AE: Constipation, patients % (Non-AF+AF total): (2.1) % | AE: Constipation, patients n (Non-AF+AF total): 2 | AE: Cough, patients % (Non-AF+AF total): (7.2) % | AE: Cough, patients n (Non-AF+AF total): 7 | AE: Decreased appetite, patients % (Non-AF+AF total): (3.1) % | AE: Decreased appetite, patients n (Non-AF+AF total): 3 | AE: Diarrhoea, patients % (Non-AF+AF total): (23.7) % | AE: Diarrhoea, patients n (Non-AF+AF total): 23 | AE: Dizziness, patients % (Non-AF+AF total): (2.1) % | AE: Dizziness, patients n (Non-AF+AF total): 2 | AE: Dyspepsia, patients % (Non-AF+AF total): (5.2) % | AE: Dyspepsia, patients n (Non-AF+AF total): 5 | AE: Dyspnoea, patients % (Non-AF+AF total): (3.1) % | AE: Dyspnoea, patients n (Non-AF+AF total): 3 | AE: Fatigue, patients % (Non-AF+AF total): (3.1) % | AE: Fatigue, patients n (Non-AF+AF total): 3 | AE: Flatulence, patients % (Non-AF+AF total): (5.2) % | AE: Flatulence, patients n (Non-AF+AF total): 5 | AE: Gastrointestinal disorders, patients % (Non-AF+AF total): (32.0) % | AE: Gastrointestinal disorders, patients n (Non-AF+AF total): 31 | AE: General disorders and administration site conditions, patients % (Non-AF+AF total): (16.5) % | AE: General disorders and administration site conditions, patients n (Non-AF+AF total): 16 | AE: Headache, patients % (Non-AF+AF total): (6.2) % | AE: Headache, patients n (Non-AF+AF total): 6 | AE: Infections and infestations, patients % (Non-AF+AF total): (14.4) % | AE: Infections and infestations, patients n (Non-AF+AF total): 14 | AE: Investigations, patients % (Non-AF+AF total): (15.5) % | AE: Investigations, patients n (Non-AF+AF total): 15 | AE: Metabolism and nutrition disorders, patients % (Non-AF+AF total): (4.1) %

From patent US20230190754A1, “Therapeutic combinations for the treatment of Progressive Fibrosing interstitial lung diseases” (Boehringer Ingelheim International GmbH, priority 2021, published 2023)
